Test results from patent US20250073281A1, “LACTOBACILLUS REUTERI HAVING IMPROVED ANTI-AGING AND HAIR HEALTH ENHANCEMENT EFFECTS, AND APPLICATION THEREOF” (priority 2021, published 2025).
Converted amounts (≈) assume the structure as drawn. Where two headings read alike, the source gives them in different places.

System: Lactobacillus reuteri VHProbi E18
Assay: Antibiotic tolerance experiment, MIC by broth microdilution
Type: cell-based
Conditions: for MIC: antibiotic against Lactobacillus reuteri VHProbi E18
Description: The minimum inhibitory concentration (MIC) value of antibiotics against Lactobacillus reuteri VHProbi E18 was determined by the broth microdilution method.

[1] = Limosilactobacillus reuteri, read-out: MIC

## CC1(C)S[C@@H]2[C@H](NC(=O)[C@H](N)c3ccccc3)C(=O)N2[C@H]1C(=O)O [Ampicillin]
  sensitivity of Lactobacillus reuteri VHProbi E18 to the antibiotic: sensitive
[1]
  MIC: 1 µg/mL (≈ 2.86 µM)

## CCC[C@@H]1C[C@@H](C(=O)N[C@@H]([C@H]2O[C@H](SC)[C@H](O)[C@@H](O)[C@H]2O)[C@H](C)Cl)N(C)C1 [Clindamycin]
[1]
  MIC: 256 µg/mL (≈ 602 µM)

## CC[C@H]1OC(=O)[C@H](C)[C@@H](O[C@H]2C[C@@](C)(OC)[C@@H](O)[C@H](C)O2)[C@H](C)[C@@H](O[C@@H]2O[C@H](C)C[C@H](N(C)C)[C@H]2O)[C@](C)(O)C[C@@H](C)C(=O)[C@H](C)[C@@H](O)[C@]1(C)O [Erythromycin]
  sensitivity of Lactobacillus reuteri VHProbi E18 to the antibiotic: sensitive
[1]
  MIC: 1 µg/mL (≈ 1.36 µM)

## [H]/N=C(/N)N[C@H]1[C@H](O)[C@@H](O)[C@H](O[C@@H]2O[C@@H](C)[C@](O)(C=O)[C@H]2O[C@@H]2O[C@@H](CO)[C@H](O)[C@@H](O)[C@@H]2NC)[C@@H](N/C(N)=N\[H])[C@@H]1O [Streptomycin]
[1]
  MIC: 512 µg/mL (≈ 880 µM)

## CN(C)[C@@H]1C(O)=C(C(N)=O)C(=O)[C@@]2(O)C(O)=C3C(=O)c4c(O)cccc4[C@@](C)(O)[C@H]3C[C@@H]12 [Tetracycline]
[1]
  MIC: 16 µg/mL (≈ 36 µM)

## Gentamicin
  MIC: 256 µg/mL
